The numbers were not newly measured in paper PMC12623819 (Scientific Reports, 2025), which cites them from elsewhere.

For series [1], the system named is cell surface-expressed nectin-4.
For series [2], the system named is nectin-4-expressing cells. The conditions noted are these: in vitro.

As for “enfortumab vedotin: ADC comprising a human nectin-4 antibody conjugated to the microtubule-disrupting agent MMAE”, the “binding to cell surface-expressed nectin-4” value in series [1] was “high affinity”. For the same substance, the “induction of cell death” value in series [2] is “induce cell death in a dose-dependent manner”.
